Measured values taken from patent US20190218226A1, “PRODRUGS OF ANTICANCER AGENTS INDOTECAN AND INDIMITECAN” (Purdue Research Foundation, priority 2016, published 2019).

How the values were obtained:
[1] = tested on: SN12C; assay: NCI60 antiproliferative screen, renal SN12C; format: cell-based, human; details: 48 h, sulforhodamine B, read-out: Cytotoxicity (GI50) renal SN12C
Summary of the method: (§1)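 After 48 h with compound at five log-spaced levels from 0.01 to 100 μM, cell growth is quantified by sulforhodamine B optical density. Fifty-percent growth inhibition concentrations are interpolated from control-normalised growth versus log10 dose.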

[2] = tested on: MCF-7; assay: NCI60 antiproliferative screen, breast MCF-7; format: cell-based, human; details: MCF-7, 48 h, sulforhodamine B; read-out: Cytotoxicity (GI50) breast MCF-7
Summary of the method: as §1

[3] = tested on: all human cancer cell lines successfully tested (NCI60); assay: NCI60 mean graph midpoint for growth inhibition; format: cell-based; details: all human cancer cell lines successfully tested; ± standard error; read-out: MGM (mean graph midpoint for growth inhibition)
Summary of the method: as §1

[4] = target: T1, Human recombinant Top1 (Homo sapiens, UniProt P11387); assay: Top1-mediated DNA cleavage assay; format: biochemical; design: key to Top 1 Cleavage: 0, no inhibitory activity; +, between 20 and 50% activities; ++, between 50 and 75% activity; +++, between 75 and 95% activity; ++++, equipotent; details: graded relative to 1 μM camptothecin
T1 construct: made in house
T1 sequence (P11387 1-765): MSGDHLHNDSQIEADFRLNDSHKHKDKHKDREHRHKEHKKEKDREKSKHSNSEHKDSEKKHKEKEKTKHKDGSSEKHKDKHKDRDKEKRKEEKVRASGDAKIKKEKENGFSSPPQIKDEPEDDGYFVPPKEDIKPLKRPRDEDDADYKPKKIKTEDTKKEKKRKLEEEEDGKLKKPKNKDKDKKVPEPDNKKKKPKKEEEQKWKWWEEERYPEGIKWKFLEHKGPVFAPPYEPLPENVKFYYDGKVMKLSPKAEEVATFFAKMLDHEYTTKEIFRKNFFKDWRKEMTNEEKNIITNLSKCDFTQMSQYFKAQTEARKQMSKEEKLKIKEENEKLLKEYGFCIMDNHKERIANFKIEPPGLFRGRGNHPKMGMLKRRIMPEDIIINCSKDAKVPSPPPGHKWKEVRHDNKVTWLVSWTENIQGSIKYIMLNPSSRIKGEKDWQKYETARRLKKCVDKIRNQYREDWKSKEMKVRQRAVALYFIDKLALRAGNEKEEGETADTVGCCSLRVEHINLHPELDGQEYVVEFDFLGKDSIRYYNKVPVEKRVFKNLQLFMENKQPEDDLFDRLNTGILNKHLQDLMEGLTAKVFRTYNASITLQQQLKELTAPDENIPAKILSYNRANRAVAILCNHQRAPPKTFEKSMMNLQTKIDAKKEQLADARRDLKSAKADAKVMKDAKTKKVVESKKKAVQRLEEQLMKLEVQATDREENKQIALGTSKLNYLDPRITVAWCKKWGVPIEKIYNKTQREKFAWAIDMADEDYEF
Summary of the method: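 About 2 nM 3′-[32P]-labelled 117-bp DNA incubated with baculovirus-expressed recombinant Top1 at 25 °C for 20 min (Tris pH 7.5, KCl, MgCl2, EDTA, BSA) at four compound concentrations; stopped with 0.5% SDS. Denaturing 20% PAGE, phosphorimaging; cleavage scored semiquantitatively (0 to ++++) against reference compounds.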

- Top 1 Cleavage [4]: 0
SMILES: COC(=O)CCC(=O)Oc1cc2c(=O)n(CCCN3CCOCC3)c3c(c2cc1OC)C(=O)c1cc2c(cc1-3)OCO2 [Compound 17, 2-Methoxy-6-(3-morpholinopropyl)-5,12-dioxo-6,12-dihydro-5H-[1,3]dioxolo[4′,5′:5,6]indeno[1,2-c]isoquinolin-3-yl Methyl Succinate]
- GI50 [1]: < 10 nM
- GI50 [2]: < 10 nM
- mean GI50 across NCI60 cell lines (MGM) [3]: 36 ± 18 nM
